Test results taken from publication PMC4632759, “Studies on [5,6]-Fused Bicyclic Scaffolds Derivatives as Potent Dual B-Raf^V600E/KDR Inhibitors Using Docking and 3D-QSAR Approaches” (International Journal of Molecular Sciences, 2015).
Read-outs that look alike come from different tables or passages of the source.

Columns and labels:
[1] = target: T1, B-Raf^V600E (Homo sapiens, UniProt P15056, V600E); set-up: method as in PMID 22376051, PMID 22763369, PMID 22883026, PMID 23906342; conditions: literature values used as 3D-QSAR data set; read-out: Kinase IC50 B-Raf^V600E; cited from earlier work
T1 sequence (P15056 whole entry V600E): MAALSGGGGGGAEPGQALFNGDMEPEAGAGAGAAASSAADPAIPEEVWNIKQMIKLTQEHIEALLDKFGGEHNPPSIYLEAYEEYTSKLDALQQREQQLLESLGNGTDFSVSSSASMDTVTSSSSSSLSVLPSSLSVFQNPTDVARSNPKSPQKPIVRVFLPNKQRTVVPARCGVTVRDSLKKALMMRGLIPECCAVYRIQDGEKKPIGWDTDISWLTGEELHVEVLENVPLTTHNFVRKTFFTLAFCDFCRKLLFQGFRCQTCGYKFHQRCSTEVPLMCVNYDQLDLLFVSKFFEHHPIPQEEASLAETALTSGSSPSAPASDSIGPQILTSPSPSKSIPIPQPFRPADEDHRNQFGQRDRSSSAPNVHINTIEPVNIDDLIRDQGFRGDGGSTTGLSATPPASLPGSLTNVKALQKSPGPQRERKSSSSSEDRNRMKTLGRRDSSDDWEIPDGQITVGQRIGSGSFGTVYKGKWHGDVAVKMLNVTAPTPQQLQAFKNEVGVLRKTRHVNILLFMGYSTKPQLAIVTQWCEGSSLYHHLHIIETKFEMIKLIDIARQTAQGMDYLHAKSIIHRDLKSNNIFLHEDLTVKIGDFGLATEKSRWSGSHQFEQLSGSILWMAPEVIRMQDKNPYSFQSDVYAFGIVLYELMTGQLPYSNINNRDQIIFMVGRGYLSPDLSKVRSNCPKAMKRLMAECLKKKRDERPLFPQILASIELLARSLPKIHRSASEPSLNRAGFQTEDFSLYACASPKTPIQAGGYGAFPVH

[2] = target: VEGFR2 (Homo sapiens, UniProt P35968); set-up: method as in PMID 22376051, PMID 22763369, PMID 22883026, PMID 23906342; conditions: literature values used as 3D-QSAR data set; read-out: Kinase IC50 VEGFR2; cited from earlier work
VEGFR2, sequence (P35968 806-1171): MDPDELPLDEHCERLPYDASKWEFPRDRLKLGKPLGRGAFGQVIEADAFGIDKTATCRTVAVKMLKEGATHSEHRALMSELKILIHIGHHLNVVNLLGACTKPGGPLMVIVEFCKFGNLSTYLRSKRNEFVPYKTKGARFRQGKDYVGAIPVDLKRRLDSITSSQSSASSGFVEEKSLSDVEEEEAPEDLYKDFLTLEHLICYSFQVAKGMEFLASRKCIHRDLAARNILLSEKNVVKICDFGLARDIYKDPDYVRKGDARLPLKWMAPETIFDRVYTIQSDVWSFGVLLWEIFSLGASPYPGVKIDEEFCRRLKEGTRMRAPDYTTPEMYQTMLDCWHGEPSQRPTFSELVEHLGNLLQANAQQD

[3] = tested on: wild-type B-Raf; set-up: method as in PMID 22376051, PMID 22763369, PMID 22883026, PMID 23906342; conditions: cited from earlier work
[4] = tested on: C-Raf; set-up: method as in PMID 22376051, PMID 22763369, PMID 22883026, PMID 23906342; conditions: cited from earlier work
[5] = target: T1, B-Raf^V600E; experiment: B-Raf^V600E inhibitory activity of designed new compounds (preliminary pharmacological evaluation); type: biochemical; conditions: for IC50: preliminary biological tests
Excerpt: (§1) The designed molecules were synthesized and the preliminary pharmacological evaluation would be used to verify the biological activity and our design strategy.

[6] = target: KDR (Homo sapiens, UniProt P35968); experiment: KDR inhibitory activity of designed new compounds (preliminary pharmacological evaluation); type: biochemical; conditions: for IC50: preliminary biological tests
KDR, sequence (P35968 20-1356): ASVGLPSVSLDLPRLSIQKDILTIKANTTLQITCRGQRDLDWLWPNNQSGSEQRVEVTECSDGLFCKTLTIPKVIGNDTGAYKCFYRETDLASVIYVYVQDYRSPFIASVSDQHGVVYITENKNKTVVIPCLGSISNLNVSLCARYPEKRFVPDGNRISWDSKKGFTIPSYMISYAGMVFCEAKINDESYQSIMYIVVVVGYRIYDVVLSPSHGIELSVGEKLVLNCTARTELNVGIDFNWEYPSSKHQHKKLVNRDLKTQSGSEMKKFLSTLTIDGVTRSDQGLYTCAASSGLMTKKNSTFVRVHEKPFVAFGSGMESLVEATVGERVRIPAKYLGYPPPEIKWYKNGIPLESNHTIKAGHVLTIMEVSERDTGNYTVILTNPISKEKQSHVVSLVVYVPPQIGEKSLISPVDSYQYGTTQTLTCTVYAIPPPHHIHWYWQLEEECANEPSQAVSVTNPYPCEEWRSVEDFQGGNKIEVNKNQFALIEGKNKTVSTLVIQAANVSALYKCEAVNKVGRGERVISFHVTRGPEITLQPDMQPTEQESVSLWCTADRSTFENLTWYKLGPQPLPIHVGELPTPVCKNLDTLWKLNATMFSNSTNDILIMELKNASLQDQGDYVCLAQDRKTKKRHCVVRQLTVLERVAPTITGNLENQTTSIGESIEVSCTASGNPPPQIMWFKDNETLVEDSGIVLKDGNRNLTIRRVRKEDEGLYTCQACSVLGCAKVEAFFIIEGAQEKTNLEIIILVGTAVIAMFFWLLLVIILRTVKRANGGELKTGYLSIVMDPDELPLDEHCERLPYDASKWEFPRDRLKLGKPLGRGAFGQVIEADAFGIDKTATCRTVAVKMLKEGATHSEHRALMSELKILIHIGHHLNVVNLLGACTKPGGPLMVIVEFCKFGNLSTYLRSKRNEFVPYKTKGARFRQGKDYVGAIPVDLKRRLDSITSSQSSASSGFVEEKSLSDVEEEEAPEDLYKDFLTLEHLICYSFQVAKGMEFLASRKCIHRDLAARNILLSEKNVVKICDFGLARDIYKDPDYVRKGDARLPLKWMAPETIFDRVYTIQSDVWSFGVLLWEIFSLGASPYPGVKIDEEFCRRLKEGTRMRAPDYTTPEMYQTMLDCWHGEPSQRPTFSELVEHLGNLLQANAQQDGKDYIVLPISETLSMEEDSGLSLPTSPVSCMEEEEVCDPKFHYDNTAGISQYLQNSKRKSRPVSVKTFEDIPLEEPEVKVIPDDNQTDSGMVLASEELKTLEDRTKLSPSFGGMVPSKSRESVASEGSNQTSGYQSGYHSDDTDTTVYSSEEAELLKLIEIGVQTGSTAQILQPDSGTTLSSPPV
Excerpt: as §1

Structure (SMILES) | IC50 [1] [nM] | IC50 [2] [nM] | IC50 [3] [nM] | IC50 [4] [nM] | IC50 [5] [nM] | Actual pIC50 KDR [6] | IC50 [6] [nM] | Actual pIC50 B-Raf [5]
N#CC1(c2cccc(C(=O)Nc3cc(Oc4ccc5nc(NC(=O)C6CC6)sc5n4)ccc3F)c2Cl)CC1 [Compound 0JA] | 7 | 2.2 | 12 | 1.5 | – | – | – | –
CNC(=O)c1nc2ccc(C(=O)c3cccc(NC(=O)c4cccc(F)c4)c3)cc2[nH]1 [Compound D4] | – | – | – | – | > 5000 | 6.05 | 890 | –
CNC(=O)c1nc2ccc(C(=O)c3cccc(NC(=O)c4ccc(Cl)c(Cl)c4)c3)cc2[nH]1 [Compound D5] | – | – | – | – | 150 | – | > 5000 | 6.82
CCNC(=O)c1nc2ccc(C(=O)c3cccc(NC(=O)c4cccc(C(F)(F)F)c4)c3)cc2[nH]1 [Compound D6] | – | – | – | – | > 5000 | 6.41 | 390 | –
CC(C)NC(=O)c1nc2ccc(C(=O)c3cccc(NC(=O)Nc4cccc(C(F)(F)F)c4)c3)cc2[nH]1 [Compound D7] | – | – | – | – | > 5000 | – | 1520 | –
O=C(Nc1cccc(C(=O)c2ccc3nc(C(=O)NC4CC4)[nH]c3c2)c1)Nc1cccc(C(F)(F)F)c1 [Compound D8] | – | – | – | – | > 5000 | – | 1320 | –
